Data reported in paper PMC11408249, “Non-invasive in vivo imaging of changes in Collagen III turnover in myocardial fibrosis” (npj Imaging, 2024).
Marks after values point to notes of the source that are not given here. Residues, ends and D or L forms follow the SMILES beside them. No end group written: not given here. *: point of attachment. DOTA = O=C(O)CN1CCN(CC(=O)O)CCN(CC(=O)*)CCN(CC(=O)O)CC1

Columns and labels:
COL3 [1] = biological target: T1, COL3 (Homo sapiens, UniProt P02461); conditions: cited from earlier work
T1 sequence (P02461 154-1221 limits assumed): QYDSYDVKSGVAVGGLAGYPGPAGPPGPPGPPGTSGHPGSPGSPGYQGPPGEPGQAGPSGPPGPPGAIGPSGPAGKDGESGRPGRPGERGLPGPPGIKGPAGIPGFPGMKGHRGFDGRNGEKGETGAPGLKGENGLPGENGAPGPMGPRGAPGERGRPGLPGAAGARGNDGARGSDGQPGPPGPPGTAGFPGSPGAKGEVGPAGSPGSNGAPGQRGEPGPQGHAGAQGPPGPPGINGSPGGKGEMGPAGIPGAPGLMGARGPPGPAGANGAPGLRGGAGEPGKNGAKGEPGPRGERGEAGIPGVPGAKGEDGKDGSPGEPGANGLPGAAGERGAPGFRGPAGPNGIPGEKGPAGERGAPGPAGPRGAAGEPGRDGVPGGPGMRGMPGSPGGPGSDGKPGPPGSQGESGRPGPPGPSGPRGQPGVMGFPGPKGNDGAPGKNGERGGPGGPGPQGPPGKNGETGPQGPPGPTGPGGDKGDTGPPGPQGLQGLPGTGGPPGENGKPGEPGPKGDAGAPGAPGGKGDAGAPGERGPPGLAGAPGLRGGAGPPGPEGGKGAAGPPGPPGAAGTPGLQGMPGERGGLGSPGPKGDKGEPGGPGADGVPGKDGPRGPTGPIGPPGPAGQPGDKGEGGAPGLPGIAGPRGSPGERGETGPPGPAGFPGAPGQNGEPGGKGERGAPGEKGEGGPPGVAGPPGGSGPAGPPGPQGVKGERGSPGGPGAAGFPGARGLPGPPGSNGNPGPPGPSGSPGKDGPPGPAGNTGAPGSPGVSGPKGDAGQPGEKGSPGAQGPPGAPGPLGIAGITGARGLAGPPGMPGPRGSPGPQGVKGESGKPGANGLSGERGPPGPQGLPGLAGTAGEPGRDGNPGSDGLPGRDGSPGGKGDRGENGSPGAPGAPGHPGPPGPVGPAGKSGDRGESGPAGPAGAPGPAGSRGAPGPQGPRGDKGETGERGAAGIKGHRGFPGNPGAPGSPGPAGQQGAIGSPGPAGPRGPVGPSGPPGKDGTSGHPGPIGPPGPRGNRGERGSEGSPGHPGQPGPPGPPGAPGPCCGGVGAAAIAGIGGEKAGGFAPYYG
Text: (§1) The two peptides, DARKSEVQK (Collagen Binding Probe 1, CBP1) and TEFPLRMRDWLKN (CBP2), were identified from reported protein-protein interaction studies between collagen and other proteins[41],[43]. […] The TEFPLRMRDWLKN peptide is part of the secreted protein acidic and rich cysteine (SPARC) that binds to fibrillary collagens. The binding interaction between SPARC and collagens regulates collagen fibrillogenesis ...

[2] = test system: COL3-induced platelet aggregation; conditions: cited from earlier work
Text: as §1

COL3-rich fibres = biological target: T2, COL3-rich fibres (Mus musculus, UniProt P08121); test: Tissue co-localisation of fluorescent probe with COL3 fibres; set-up: species or system mice; conditions: murine model of vascular remodelling
T2 construct: Signal enhancement seen on the MRI coincided with COL3 fibres detected by histology; from tissue; host or cells: remodelled abdominal aortic wall of male ApoE-/- mice, in vivo and in excised sections
T2 sequence (P08121 155-1219 limits assumed): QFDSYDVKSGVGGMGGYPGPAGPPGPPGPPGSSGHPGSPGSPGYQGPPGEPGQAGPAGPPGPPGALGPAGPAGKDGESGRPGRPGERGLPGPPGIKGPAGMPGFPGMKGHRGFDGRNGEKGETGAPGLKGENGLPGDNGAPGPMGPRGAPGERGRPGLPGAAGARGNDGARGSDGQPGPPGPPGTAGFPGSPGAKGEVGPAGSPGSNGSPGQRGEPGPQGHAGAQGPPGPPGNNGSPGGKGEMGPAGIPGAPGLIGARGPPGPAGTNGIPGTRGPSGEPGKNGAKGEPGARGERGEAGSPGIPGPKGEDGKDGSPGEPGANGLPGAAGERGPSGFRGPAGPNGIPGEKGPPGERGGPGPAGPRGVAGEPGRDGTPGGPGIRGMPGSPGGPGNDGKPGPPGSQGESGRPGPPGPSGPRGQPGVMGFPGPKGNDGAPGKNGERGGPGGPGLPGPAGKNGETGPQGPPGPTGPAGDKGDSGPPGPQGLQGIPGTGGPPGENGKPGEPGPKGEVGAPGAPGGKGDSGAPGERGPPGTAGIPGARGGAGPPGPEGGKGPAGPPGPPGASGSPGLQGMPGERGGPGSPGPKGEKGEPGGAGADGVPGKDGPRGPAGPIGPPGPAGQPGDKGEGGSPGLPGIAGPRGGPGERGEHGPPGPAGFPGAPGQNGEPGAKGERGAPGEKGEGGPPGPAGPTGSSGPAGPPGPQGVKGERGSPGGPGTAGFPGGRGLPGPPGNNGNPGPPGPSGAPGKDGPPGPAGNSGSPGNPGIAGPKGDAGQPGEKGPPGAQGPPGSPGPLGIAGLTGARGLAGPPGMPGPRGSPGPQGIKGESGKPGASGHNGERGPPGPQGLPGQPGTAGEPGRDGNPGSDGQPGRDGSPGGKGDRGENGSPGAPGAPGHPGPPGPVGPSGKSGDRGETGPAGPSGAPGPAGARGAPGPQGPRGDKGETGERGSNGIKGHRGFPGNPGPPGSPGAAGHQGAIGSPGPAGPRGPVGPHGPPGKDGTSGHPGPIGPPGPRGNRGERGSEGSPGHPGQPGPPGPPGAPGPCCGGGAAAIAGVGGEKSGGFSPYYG
Text: (§2) The monomeric molecular probes ending with a N-terminus free DOTAMA chelator and with a C-terminus free carboxylic group were custom synthesised by Peptide Synthetics Ltd (Hampshire, United Kingdom) with a purity of >95%. The DOTAMA collagen-binding peptides were complexed in house with Gd(III) to obtain a contrast agent for MR molecular imaging, or with Eu(III) for in vitro binding studies using Time-Resolved Fluorescence (TRF) plate assays, or ^68Ga(III) for PET biodistribution studies. Metal complexation of the DOTAMA derivatives was performed in-house, by reacting the desired lanthanide ion (Gd^3+, Eu^3+) in a 1.05:1 L:M molar ratio at pH 5.5 and room temperature. Reaction evolution was confirmed by xylenol orange method. Upon reaction competition, the pH was adjusted to 7 and the samples were lyophilised and stored at −20 °C. The final concentration of the Gd(III) and Eu(III) complex solutions was assessed by ICP-OES and/or BMS. For tissue co-localisation experiments, the CBP1 was also synthesised in the fluorescently labelled form by conjugating a Rhodamine B derivative to its N-terminus (compound Rh-CBP1).

COL1 fibres = biological target: T3, COL1 fibres (Mus musculus, UniProt P11087+Q01149); test: Tissue co-localisation of fluorescent probe with COL1 fibres; set-up: species or system mice; conditions: aortic tissue, murine model of vascular remodelling
T3 construct: from tissue; host or cells: sections of the remodelled aortic wall of ApoE-/- mice
Text: as §2

COL3 [3] = biological target: T1, COL3; test: Eu(III) time resolved fluorescence (TRF) plate binding assay on immobilised COL3; conditions: immobilised COL3, probe up to 15 µM
Experimental: The protocol to assess the binding affinity of the Eu(III)-labelled collagen probes to COL3 has been optimised previously. Such an assay is based on the Eu(III) TRF which detects the amount of Eu(III)-labelled probes that bind to COL3 immobilised on a multi-well plate. The assay was used to measure the COL3 binding affinity of the monomeric Eu(III)-labelled probes (expressed as the dissociation constant, Kd). The same assay was carried out with COL1, to estimate the selectivity for COL3 binding in respect to COL1. Potential unspecific binding effects associated with the assay were investigated by using two types of control experiments: (i) the scrambled versions of the Eu(III)-labelled probes were used as negative controls in TRF plate assays with immobilised collagen (either COL3 or COL1); and (ii) the collagen specific probes were assayed against elastin and bovine serum albumin (BSA) as control non-binding proteins. Briefly, increasing concentrations of the peptide (0.1–15 µM; 70 µL per well) were incubated in 96-well microplates pre-coated with the desired protein. Triplicate readings were taken per concentration and three independent experiments (plates) were used. After incubation of the peptide with the protein for one hour, the plates were washed with PBS to remove any free (unbound) peptide. […] The plates were then read using a luminescence plate reader. […]

COL3 [4] = biological target: T4, COL3 (Mus musculus, UniProt P08121); test: Molecular CMR of COL3 in a murine model of myocardial infarction; type: in vivo, mice; conditions: control agents, i.v. 0.2 mmol/kg, 30 minutes post-injection, n = 2–3 per group
T4 construct: from tissue; host or cells: infarcted left-ventricular myocardium of female CD1 mice, in vivo
T4 sequence (P08121 155-1219 limits assumed): T2 sequence (P08121 155-1219 limits assumed)

[5] = 20 MHz, 37 °C, cited from earlier work
Experimental: Table 1 Relaxivities of monomeric and tetrameric probes bearing CBP1 and CBP2 peptide moieties, in PBS and 0.6 mM human serum albumin (HAS) at 20 MHz and 37 °C | column: r1 mM (mM^−1 s^−1) / PBS; r1 mM (mM^−1 s^−1) / HSA 0.6 mM || To further characterise the molecular characteristics of these probes, the ^1H nuclear magnetic relaxation dispersion profiles (^1H-NMRD) of Gd-DOTAMA-CBP1, Gd-DOTAMA-CBP2 and [Gd-DOTAMA]4-CBP1 were acquired in phosphate buffer saline (PBS) and in 0.6 mM human serum albumin (HSA), at 25 and 37 °C (Supplementary Fig. 3a–c). The profiles obtained were characteristic of small-molecular weight (MW) complexes, even when in the presence of HSA. Table 1 summarises the relaxivity values at 20 MHz and 37 °C, for all probes and for Gadovist[45] a nonpeptide-based (non-targeted) clinically approved contr ...

Collagen type III (COL3) = biological target: T5, Collagen type III (COL3) (Homo sapiens, UniProt P02461); test: competition Eu(III) time-resolved fluorescence assay
T5 chain: T1 sequence (P02461 154-1221 limits assumed)

T3 sequence (P11087 152-1207 limits assumed): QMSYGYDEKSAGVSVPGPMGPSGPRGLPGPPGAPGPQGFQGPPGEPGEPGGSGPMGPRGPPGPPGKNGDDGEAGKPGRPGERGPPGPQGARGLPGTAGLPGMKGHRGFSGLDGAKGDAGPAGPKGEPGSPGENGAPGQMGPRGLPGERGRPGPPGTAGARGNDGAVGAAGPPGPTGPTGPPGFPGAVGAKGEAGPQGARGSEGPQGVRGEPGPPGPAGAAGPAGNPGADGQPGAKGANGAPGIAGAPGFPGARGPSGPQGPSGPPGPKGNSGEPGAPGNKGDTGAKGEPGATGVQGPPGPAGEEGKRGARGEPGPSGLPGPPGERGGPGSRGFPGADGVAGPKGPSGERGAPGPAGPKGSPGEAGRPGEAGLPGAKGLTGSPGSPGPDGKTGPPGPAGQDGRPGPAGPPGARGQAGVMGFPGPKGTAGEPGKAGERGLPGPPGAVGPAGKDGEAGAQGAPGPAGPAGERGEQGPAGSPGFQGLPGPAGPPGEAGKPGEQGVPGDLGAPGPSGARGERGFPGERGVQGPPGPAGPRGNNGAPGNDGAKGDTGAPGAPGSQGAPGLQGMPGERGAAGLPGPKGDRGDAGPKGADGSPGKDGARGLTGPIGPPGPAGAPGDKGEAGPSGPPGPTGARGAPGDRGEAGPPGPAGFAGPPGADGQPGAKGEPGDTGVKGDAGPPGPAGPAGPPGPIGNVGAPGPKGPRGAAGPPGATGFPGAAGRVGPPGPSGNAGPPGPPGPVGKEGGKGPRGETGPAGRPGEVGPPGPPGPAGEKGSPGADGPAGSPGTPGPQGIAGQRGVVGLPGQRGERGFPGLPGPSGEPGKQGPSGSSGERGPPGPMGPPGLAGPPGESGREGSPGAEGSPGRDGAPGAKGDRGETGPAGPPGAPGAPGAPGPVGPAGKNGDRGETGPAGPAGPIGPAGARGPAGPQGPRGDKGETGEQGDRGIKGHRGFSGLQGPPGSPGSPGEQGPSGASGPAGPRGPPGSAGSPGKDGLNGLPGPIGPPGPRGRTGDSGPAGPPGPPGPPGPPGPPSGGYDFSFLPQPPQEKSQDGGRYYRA
T3 sequence (Q01149 86-1125 limits assumed): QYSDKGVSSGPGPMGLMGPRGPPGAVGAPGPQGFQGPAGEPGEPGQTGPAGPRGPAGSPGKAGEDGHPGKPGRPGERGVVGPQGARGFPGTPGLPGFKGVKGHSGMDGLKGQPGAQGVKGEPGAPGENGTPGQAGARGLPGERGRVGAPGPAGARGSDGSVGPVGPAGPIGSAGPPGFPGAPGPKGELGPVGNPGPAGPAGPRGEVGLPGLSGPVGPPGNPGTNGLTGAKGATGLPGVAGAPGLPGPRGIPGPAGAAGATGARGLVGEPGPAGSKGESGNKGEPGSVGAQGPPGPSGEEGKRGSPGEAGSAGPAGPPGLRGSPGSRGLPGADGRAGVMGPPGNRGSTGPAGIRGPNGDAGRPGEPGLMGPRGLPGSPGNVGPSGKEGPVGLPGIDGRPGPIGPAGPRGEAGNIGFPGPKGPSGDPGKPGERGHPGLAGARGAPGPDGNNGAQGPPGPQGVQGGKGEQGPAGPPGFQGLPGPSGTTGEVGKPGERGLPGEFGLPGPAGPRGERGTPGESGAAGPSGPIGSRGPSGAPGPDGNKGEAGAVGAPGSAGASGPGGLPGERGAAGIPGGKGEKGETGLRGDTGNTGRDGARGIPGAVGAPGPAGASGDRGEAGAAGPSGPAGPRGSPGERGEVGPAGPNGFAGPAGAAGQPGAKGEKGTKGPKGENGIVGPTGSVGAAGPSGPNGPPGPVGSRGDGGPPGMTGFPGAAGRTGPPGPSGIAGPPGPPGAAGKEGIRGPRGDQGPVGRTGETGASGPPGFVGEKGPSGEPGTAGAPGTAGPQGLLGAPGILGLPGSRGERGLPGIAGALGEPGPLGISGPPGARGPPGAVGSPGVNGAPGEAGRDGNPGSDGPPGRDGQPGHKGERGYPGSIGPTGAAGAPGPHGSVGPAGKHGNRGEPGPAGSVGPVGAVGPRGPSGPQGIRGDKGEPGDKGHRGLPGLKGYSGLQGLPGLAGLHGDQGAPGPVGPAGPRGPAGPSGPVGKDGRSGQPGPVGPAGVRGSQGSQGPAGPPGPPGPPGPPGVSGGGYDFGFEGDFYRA

Molecule: DARKSEVQK [CBP1]
- binding affinity towards COL3 compared with COL1 (in words) (COL3 [1]): higher binding affinity towards COL3 than COL1
- effect on COL3-induced platelet aggregation (in words) [2]: inhibit

Molecule: DARKSEVQK [rhodamine-labelled CBP1 analogue probe, CBP1 in fluorescently labelled form, Rhodamine B derivative conjugated to its N-terminus]
- co-localisation with COL3-rich fibres within the remodelled aortic wall (in words) (COL3-rich fibres): co-localisation of the fluorescent probe with COL3-rich fibres
- co-localisation to COL1 fibres (in words) (COL1 fibres): no co-localisation

Molecule: CC(C)[C@H](NC(=O)[C@H](CCC(=O)O)NC(=O)[C@H](CO)NC(=O)[C@H](CCCCN)NC(=O)[C@H](CCCNC(=N)N)NC(=O)[C@H](C)NC(=O)[C@H](CC(=O)O)NC(=O)CN1CCN(CC(=O)O)CCN(CC(=O)O)CCN(CC(=O)O)CC1)C(=O)N[C@@H](CCC(N)=O)C(=O)N[C@@H](CCCCN)C(=O)O [Eu-DOTAMA-CBP1] ({DOTA}-DARKSEVQK-OH)
- fractional occupancy (FO) at the highest concentration of probe (COL3 [3]): 74%

Molecule: O=C([O-])CN1CCN(CC(=O)[O-])CCN([C@H](CO)[C@H](O)CO)CCN(CC(=O)[O-])CC1.[Gd+3] (racemic) [Gadovist]
- signal enhancement in the infarct, both timepoints after MI (in words) (COL3 [4]): No enhancement
- r1 in PBS ([5]; column PBS): 3.7 mM⁻¹ s⁻¹
- r1 (column HSA 0.6 mM) ([5]; in non-sterile bovine plasma (albumin 0.64 to 0.82 mmol/L)): 6.1* mM^−1 s^−1

B1: [Gd-DOTAMA]4-CBP1 (peptide)
chain: Ac-C((Gd-DOTAMA)4 tri‑lysine scaffold)DARKSEVQK
modifications: not fully specified
- IC50 (Collagen type III (COL3)): 200 µM
